According to US20220242846A1, “ISOINDOLINONE COMPOUNDS” (Monte Rosa Therapeutics AG, priority 2019, published 2022):
Read-outs that look alike come from different tables or passages of the source.

What was measured:
Format in all cases: cell-based
[1] = system: Human mammary epithelial cells (HMEC) engineered to express c-myc tagged with EGFP; experiment: 3D spheroid assay, myc-HMEC (CellTiterGlo3D viability)
[2] = system: Human mammary epithelial cells (HMEC) engineered to express EGFP alone (non myc); experiment: 3D spheroid assay, non myc-HMEC (CellTiterGlo3D viability); settings: 120 h, 3D spheroids, 5 days with compound, read-out: Code: EC50 value in the non myc-HMEC assay
IKZF3 = target: T1, IKZF3 (Homo sapiens, UniProt Q9UKT9); experiment: Selectivity determination by Western Blot assay in MM1S cells: IKZF3; set-up: key: A represents a no degradation observed at 30 μM; B represents trace degradation at 30 μM (below 20%); C represents weak degradation at 30 μM (below 50%); D represents degradation at 30 μM (>90%); E represents degradation at 3 μM (>90%); F represents degradation at 0.3 μM (>90%); settings: MM1S cells, 0.3, 3 and 30 μM, 6 hours
T1 construct: MM1S cells were purchased from ATCC (cat. Number CRL-2974); endogenous in cells; host or cells: MM1S (ATCC CRL-2974)
Procedure: (§1) CK1alpha/Ikaros/Aiolos/ZFP91 Selectivity determination by Western Blot Assay
(§2) MM1S cells were purchased from ATCC (cat. Number CRL-2974), sub-cultured in 90% RPMI 1640 with 10% FBS, supplemented with 1× P/S and incubated at 37° C., 5% CO2. Compounds were stored as 10 mM DMSO stock. For the assay, MM1S cells (3 million cells/well) were plated in 6-well plates and incubated over night. Cells were treated with respective compounds using a serial dilution: 0.3 μM, 3 μM and 30 μM as well as a vehicle only (DMSO) control for 6 hours. Media with suspension cells was subsequently transferred to 15 mL conical tubes, wells rinsed twice with ice-cold PBS and merged with cell suspension in respective 15 mL conical tube. Cells were spinned down, supernatant aspirated, pellets resuspended in ice-cold PBS and transferred to microtubes. Cells were spinned down, supernatant aspirated and pellets resuspended in 120 μL RIPA lysis buffer supplemented with protease and phosphatase inhibitors. Cell lysates were incubated on ice for 20 minutes followed by centrifugation at >20,000×g for 5 mM. Supernatants were transferred to fresh microtubes and stored at −80° C. Total protein concentration was determined using a BCA assay with a BSA standard curve and concentration of all samples was adjusted to 1 mg/mL. 25 μL 4× LDS sample buffer supplemented with 100 mM DTT was added to 75 μL sample. Samples were centrifuged (8,000×g, 1 min) and incubated at 95° C. for […] followed by another centrifugation step (8,000×g, 1 mM). 20 μL of each sample was loaded on a 4-12% gel alongside a protein molecular weight marker. Gels were run in the presence of MOPS buffer at 80 Volts for […], followed by 120 Volts for 1.5 h and proteins subsequently transferred onto nitrocellulose membranes at 20 Volts for 7 mM using an iBlot2 Gel Transfer Device. Membranes were then cut horizontally into two pieces, covering 80-50 kDa and 50-25 kDa. Blocking the membranes was performed by gently shaking in 5% (w/v) skim milk in TSB-T for 1 hr at room temperature. All primary antibodies were used at a 1/1000 in 5% (w/v) BSA dissolved in TBST and incubated with membranes over night at 4° C. After three washes with 1× TBST for 5 mM, HRP-coupled secondary antibodies diluted in 5% (w/v) BSA/TBST (Goat Anti-Rb IgG, dil. 1/10,000; Goat Anti-Mouse IgG, dil. 1/5000) were added for 1 hr at room temperature. After three washes with 1× TBST (5 minutes each), membranes were incubated with ECL reagent for 1 mM at room temperature. Chemiluminescence signals were then detected using a LAS-4000 system with default settings and signals quantified using Image Studio Lite software (version 5.2). Membrane parts previously incubated with antibody against CK1alpha were stripped off antibodies by incubating with stripping buffer for 30 minutes followed by three washed with TBST (5 mM each), blocking with 5% (w/v) skim milk for 1 hr, and incubation with primary antibody against GAPDH overnight at 4° C. Subsequent washes, incubation with secondary antibody and signal acquisition were performed as described above.
(§3) Table 5 assigns each compound a code indicating the ability for the degradation of IKZF1, IKZF3, CK1alpha and ZFP91: A, B, C, D, E or F. According to the code, A represents a no degradation observed at 30 μM, B represents trace degradation at 30 μM (below 20%), C represents weak degradation at 30 μM (below 50%), D represents degradation at 30 μM (>90%), E represents degradation at 3 μM (>90%) and F represents degradation at 0.3 μM (>90%).

CK1alpha = target: T2, CK1alpha (Homo sapiens, UniProt P48729); experiment: Selectivity determination by Western Blot assay in MM1S cells: CK1alpha; set-up: key: A represents a no degradation observed at 30 μM; B represents trace degradation at 30 μM (below 20%); C represents weak degradation at 30 μM (below 50%); D represents degradation at 30 μM (>90%); E represents degradation at 3 μM (>90%); F represents degradation at 0.3 μM (>90%); settings: MM1S cells, 0.3, 3 and 30 μM, 6 hours
T2 construct: MM1S cells were purchased from ATCC (cat. Number CRL-2974); endogenous in cells; host or cells: MM1S (ATCC CRL-2974)
Procedure: as §1, §2, §3

T1 sequence (Q96SW2 whole entry partner): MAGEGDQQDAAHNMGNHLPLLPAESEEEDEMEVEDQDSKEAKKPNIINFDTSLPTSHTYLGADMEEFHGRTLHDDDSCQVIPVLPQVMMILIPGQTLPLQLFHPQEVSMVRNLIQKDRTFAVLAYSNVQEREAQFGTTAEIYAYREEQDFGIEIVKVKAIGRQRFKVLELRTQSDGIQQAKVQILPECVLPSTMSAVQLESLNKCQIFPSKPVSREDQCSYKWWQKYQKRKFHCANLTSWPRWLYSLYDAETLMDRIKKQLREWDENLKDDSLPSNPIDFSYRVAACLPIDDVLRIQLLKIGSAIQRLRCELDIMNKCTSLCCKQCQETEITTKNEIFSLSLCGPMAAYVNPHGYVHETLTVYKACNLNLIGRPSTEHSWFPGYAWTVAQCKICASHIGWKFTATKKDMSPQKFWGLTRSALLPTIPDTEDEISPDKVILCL
T1 sequence (Q16531 2-1140 partner limits assumed): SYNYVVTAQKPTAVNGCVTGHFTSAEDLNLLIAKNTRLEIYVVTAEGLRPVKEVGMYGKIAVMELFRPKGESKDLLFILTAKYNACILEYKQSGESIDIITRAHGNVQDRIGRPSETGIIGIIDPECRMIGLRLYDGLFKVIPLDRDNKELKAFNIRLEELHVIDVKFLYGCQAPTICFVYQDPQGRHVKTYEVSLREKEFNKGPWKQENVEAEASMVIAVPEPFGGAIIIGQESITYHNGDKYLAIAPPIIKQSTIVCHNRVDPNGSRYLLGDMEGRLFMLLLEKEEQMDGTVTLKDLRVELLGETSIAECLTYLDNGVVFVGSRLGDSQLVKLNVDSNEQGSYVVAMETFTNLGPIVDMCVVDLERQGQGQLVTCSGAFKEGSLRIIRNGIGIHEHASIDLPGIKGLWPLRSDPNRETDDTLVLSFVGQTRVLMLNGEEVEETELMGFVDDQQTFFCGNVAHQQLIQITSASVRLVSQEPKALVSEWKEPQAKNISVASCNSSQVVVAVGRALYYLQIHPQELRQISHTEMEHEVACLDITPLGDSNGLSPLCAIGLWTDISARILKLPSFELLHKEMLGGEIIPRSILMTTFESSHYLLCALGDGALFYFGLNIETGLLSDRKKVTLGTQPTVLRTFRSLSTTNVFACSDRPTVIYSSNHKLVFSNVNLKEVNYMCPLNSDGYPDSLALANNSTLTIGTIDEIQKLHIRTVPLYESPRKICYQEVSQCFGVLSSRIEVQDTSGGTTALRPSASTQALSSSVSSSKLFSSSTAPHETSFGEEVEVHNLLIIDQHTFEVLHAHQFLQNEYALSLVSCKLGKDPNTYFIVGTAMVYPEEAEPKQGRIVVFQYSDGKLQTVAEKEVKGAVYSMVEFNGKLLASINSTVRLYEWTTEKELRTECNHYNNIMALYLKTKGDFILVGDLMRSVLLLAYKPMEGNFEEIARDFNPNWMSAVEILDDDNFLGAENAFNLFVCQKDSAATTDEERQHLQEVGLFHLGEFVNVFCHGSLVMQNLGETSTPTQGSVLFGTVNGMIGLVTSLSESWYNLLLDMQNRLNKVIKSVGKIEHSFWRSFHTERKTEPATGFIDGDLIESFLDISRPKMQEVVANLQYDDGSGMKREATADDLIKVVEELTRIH
T1 sequence (Q9UKT9 whole entry): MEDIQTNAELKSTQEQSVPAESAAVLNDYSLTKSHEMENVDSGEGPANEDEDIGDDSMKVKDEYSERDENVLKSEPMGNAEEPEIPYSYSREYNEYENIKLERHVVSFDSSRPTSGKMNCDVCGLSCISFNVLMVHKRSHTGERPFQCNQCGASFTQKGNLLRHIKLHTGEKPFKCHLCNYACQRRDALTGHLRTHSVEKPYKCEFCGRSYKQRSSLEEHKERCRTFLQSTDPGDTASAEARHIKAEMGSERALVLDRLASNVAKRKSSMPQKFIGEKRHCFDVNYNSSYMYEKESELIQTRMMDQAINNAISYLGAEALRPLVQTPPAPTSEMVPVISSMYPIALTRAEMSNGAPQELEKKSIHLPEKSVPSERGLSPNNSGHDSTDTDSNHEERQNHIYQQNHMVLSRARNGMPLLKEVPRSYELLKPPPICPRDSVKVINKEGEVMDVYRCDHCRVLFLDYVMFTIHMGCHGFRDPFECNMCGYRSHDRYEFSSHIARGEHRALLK
T2 sequence (Q96SW2 whole entry partner): as the sequence (Q96SW2 whole entry partner) above
T2 sequence (Q16531 2-1140 partner limits assumed): as the sequence (Q16531 2-1140 partner limits assumed) above
T2 sequence (P48729 whole entry): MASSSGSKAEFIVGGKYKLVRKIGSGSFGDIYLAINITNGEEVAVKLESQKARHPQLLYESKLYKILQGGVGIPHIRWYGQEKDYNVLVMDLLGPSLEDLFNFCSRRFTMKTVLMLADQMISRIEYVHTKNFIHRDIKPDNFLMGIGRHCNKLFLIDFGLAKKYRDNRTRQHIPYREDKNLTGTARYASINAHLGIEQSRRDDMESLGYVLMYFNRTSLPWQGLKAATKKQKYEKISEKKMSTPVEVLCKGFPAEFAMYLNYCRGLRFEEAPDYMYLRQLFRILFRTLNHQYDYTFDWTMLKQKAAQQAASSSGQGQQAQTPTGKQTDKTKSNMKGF

Compound	EC50 ([1]; Homo sapiens, HMEC, 120 h, 3D spheroids, 5 days with compound, read-out: Code: EC50 value in the myc-HMEC assay) [nM]	EC50 ([1]; myc-HMEC 3D spheroids (compounds with code D and E), 5 days, read-out: EC50) [nM]	EC50 [2] [nM]	IKZF3 degradation code (IKZF3)	CK1alpha degradation code (CK1alpha)
Cc1ccc(NC(=O)NCc2ccc3c(c2)C(=O)N(C2CCC(=O)NC2=O)C3)cc1Cl (stereo not drawn) [Compound 8]	≤ 400	220	> 10000	B (B represents trace degradation at 30 μM (below 20%))	A
Cc1c(Cl)cc(NC(=O)NCc2ccc3c(c2)C(=O)N(C2CCC(=O)NC2=O)C3)cc1CN(C)C (stereo not drawn) [Compound 75]			> 10000	A	A
Cc1c(Cl)cc(NC(=O)NCc2ccc3c(c2)C(=O)N(C2CCC(=O)NC2=O)C3)cc1CN1CCOCC1 (stereo not drawn) [Compound 82]				A	A
Cc1cc(C)c(NC(=O)NCc2ccc3c(c2)C(=O)N(C2CCC(=O)NC2=O)C3)cc1Cl (stereo not drawn) [Compound 85]				A	B (B represents trace degradation at 30 μM (below 20%))
Cc1ccc(NC(=O)NCc2ccc3c(c2)C(=O)N(C2CCC(=O)NC2=O)C3)c(Cl)c1Cl (stereo not drawn) [Compound 87]				A	A
O=C1CCC(N2Cc3ccc(CNC(=O)Nc4cccc(CN5CCOCC5)c4)cc3C2=O)C(=O)N1 (stereo not drawn) [Compound 105]				A	A
Cc1c(Cl)cc(NC(=O)NCc2ccc3c(c2)C(=O)N(C2CCC(=O)NC2=O)C3)cc1CC1COCOC1 (stereo not drawn) [Compound 132]				A	C (C represents weak degradation at 30 μM (below 50%))
